The target in data set [1] is T1, BCMA ectodomain cytokine receptor (Homo sapiens, UniProt Q02223).
T1 construct: such as BCMA(1-54), TACI(1-165) and BAFFR(1-78); expressed in transfected cells; host or cells: HEK293T
T1 sequence (Q02223 1-54): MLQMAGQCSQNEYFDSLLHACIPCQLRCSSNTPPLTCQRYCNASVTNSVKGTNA
The data set can be described thus: HEK293T Stat reporter assay of BCMA ectodomain cytokine receptor with soluble APRIL trimers (Example 14). The data set is classed as cell-based. The following applies: 5 hours post-treatment; FIGS. 37C-37D. An excerpt: To test if the panel of ligand inducers and ectodomains can be further extended beyond the AP1903-FKBP(F36V) pairing, we tested signaling in response to other multimeric ligand inducers. As the Tumor Necrosis Family (TNF) superfamily of ligands are trimers, they engage their respective receptors in a multimeric fashion. Therefore, we fused ectodomains derived from the TNFR2 superfamily receptors, such as BCMA(1-54), TACI(1-165) and BAFFR(1-78), to the transmembrane and signaling domains of our chimeric cytokine receptors, and tested signaling in response to soluble trimeric ligand. Briefly, 20,000 HEK293T cells were plated into each well of a poly-L-lysine-coated 96-well flat-bottom plate and allowed to adhere overnight. The chimeric cytokine receptor (2.5 ng), a Stat response element that drives Firefly Luciferase (100 ng; Promega) and Renilla Luciferase control reporter vector (1 ng; Promega) were mixed in a final volume of 5 uL in Opti-MEM (Gibco) (“DNA mix”). 0.3 uL Lipofectamine 2000 (Invitrogen) in 5 uL Opti-MEM was incubated at room temperature for 5 minutes and then added to the DNA mix. […] 24 hours after transfection, cells were either left untreated, or treated with soluble BAFF or APRIL trimers diluted in serum-free media, and Stat reporter activity was determined 5 hours post-treatment using the Dual-Glo Luciferase Assay System (Promega). […]

Data set [2] relates to CAR T cells. Kind of data set: Target-independent AP1903-driven CAR T cell expansion, 2-week culture (Example 11). The data set is classed as cell-based, human. To be noted: FKBP switch CAR T cells, IL7R(316-459)/IL12Rb2(775-825) cytotails; reference IL-7 and IL-12p70 10 ng/mL each; 2 weeks. On the procedure:
Control CAR T cells or FKBP switch CAR T cells bearing IL7R(316-459)/IL12Rb2(775-825) cytotails were cultured with the indicated concentrations of AP1903, and in the absence of exogenous cytokines (unless specified in the case of positive controls) or target cells for 2 weeks. As a positive control, CAR T cells were alternatively supplemented with exogenous recombinant IL-7 (10 ng/mL; Miltenyi) and IL-12p70 (10 ng/mL; Biolegend) to mimic the dual IL-7R/IL12Rb2 outputs transmitted by FKBP switch activation. At the end of the 2-week culture, the number and quality of surviving CAR T cells were determined. Briefly, duplicate samples from each culture condition cells were harvested and stained using the Zombie NIR Fixable Viability Kit (Biolegend). Samples were washed with PBS, Fc blocked, then stained with the following antibody cocktail diluted in PBS+1% BSA: BUV395-conjugated anti-human CD3, BV510-conjugated anti-human CD8, BV605-conjugated human CD4 and FITC-conjugated v5 tag (for CAR detection), PE/Cy7-conjugated anti-human CD62L (Biolegend) and BV785-conjugated anti-human CD45RO (Biolegend). Finally, samples were washed in PBS and cell pellets were resuspended in 130 uL PBS+1% BSA containing 123count eBeads counting beads (Thermo Fisher) (10 uL counting beads in 120 uL PBS+1% BSA) prior to FACS analysis.

The target in data set [3] is FKBP12 containing the F36V mutation (Homo sapiens, UniProt P62942, F37V). The following applies: literature (Jemal 2008; Scher and Kelly 1993); cited from earlier work.
FKBP12 containing the F36V mutation, sequence (P62942 2-108 F37V): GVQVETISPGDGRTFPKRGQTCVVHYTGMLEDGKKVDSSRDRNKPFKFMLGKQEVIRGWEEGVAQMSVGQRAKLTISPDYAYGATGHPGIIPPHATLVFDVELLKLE
The subject of the next data set is STAT4. Kind of data set: HEK293T transcription factor reporter assay of cytotails (Example 16A), Stat4. The data set is classed as cell-based. To be noted: 1 ug/mL AP1903, 6 hours; FIG. 39B. The procedure: To test the signaling pathways activated by different cytotails, we utilized a HEK293T cell reporter assay. Briefly, 20,000 HEK293T cells were plated into each well of a poly-L-lysine-coated 96-well flat-bottom plate and allowed to adhere overnight. An inducible cytokine receptor (2.5 ng), the respective transcription factor response element that drives Firefly Luciferase (100 ng; Promega) and a Renilla Luciferase control reporter vector (1 ng; Promega) were mixed in a final volume of 5 uL in Opti-MEM (Gibco) (“DNA mix”). 0.3 uL Lipofectamine 2000 (Invitrogen) in 5 uL Opti-MEM was incubated at room temperature for 5 minutes and then added to the DNA mix. The mixture was incubated at room temperature for 20 minutes and the total volume of 10 uL was added to each well containing HEK-293T. As a negative control, the FKBP ectodomain was coupled to the transmembrane and short intracellular region of TpoR(478-528) that lacked the JAK-binding domain and cytotail (i.e. TpoR CTRL). As a comparison, the FKBP ectodomain was coupled to the MyD88/CD40 signaling domains (henceforth referred to as “FKBP-MyD88-CD40”). 24 hours after transfection, cells were either left untreated, or treated with 1 ug/mL AP1903 (Apex Bio) diluted in serum-free media. 6 hours after AP1903 treatment, reporter activity was determined using the Dual-Glo Luciferase Assay System (Promega). […]
A general note: A reporter such as luciferase makes a cellular process visible.

For data set [4], the system named is CAR T cells. Kind of data set: Cytokine release (MSD assay) at the end of the 4-day cytotoxicity assay (Example 16B). In kind it is cell-based. On the procedure: (§1) To test whether different cytotail outputs influenced the effector function of CAR T cells, we performed a 4-day in vitro cytotoxicity assay. Briefly, 30,000 U87KO-EGFRvIII-nucRFP target cells were seeded and allowed to attach in 96-well plates with black walls and flat clear bottom in 50 uL RPMI containing 10% FBS (Hyclone), non-essential amino acids, sodium pyruvate and 20-25 mM HEPES. U87KO-EGFRvIII is a kind gift from Cellectis SA (Paris, France). U87KO-EGFRvIII was derived from the parental cell line, U87MG (ATCC), by first knocking out endogenous wildtype EGFR using Transcription Activator-Like Effector Nucleases (TALEN), and then stably overexpressing full-length human EGFRvIII via lentiviral transduction. To facilitate target cell imaging via the IncuCyte Live Cell Analysis Imaging System, U87KO-EGFRvIII-nucRFP target cells were derived from U87KO-EGFRvIII by a second lentiviral transduction with IncuCyte NucLight Red Lentivirus Reagent (Sartorius). EGFRvIII CAR (2173 scFv) T cells bearing an FKBP switch with the respective cytotails were thawed and added to plated target cells at an Effector:Target (E:T) ratio of 1:8. As a comparison, CAR T cells coexpressing FKBP-MyD88-CD40 were included. […] The number of live target cells at each timepoint was determined by enumerating the number of live nuclearRFP+ cells using the Incucyte Live Cell Analysis Imaging System. […]

The test system of data set [5] is U87KO-EGFRvIII-nucRFP target cells. Kind of data set: 4-day in vitro cytotoxicity assay against U87KO-EGFRvIII-nucRFP target cells (Example 16B). The data set is classed as cell-based. To be noted: EGFRvIII CAR (2173 scFv); E:T 1:8; 500 ng/ml AP1903; 4 days; FIGS. 40A-40F. The procedure:
as §1

The subject of data set [6] is CAR T cells. The data set can be described thus: Cytokine release (MSD assay) on Day 5 of the AP1903-driven growth assay (Example 16B). In kind it is cell-based. The following applies: 500 ng/ml of AP1903; FIGS. 42A-42B. The procedure:
To test whether different cytotail outputs influenced the memory differentiation and long-term survival of CAR T cells, we performed an AP1903-driven growth assay. CAR T cells bearing the indicated chimeric receptors were thawed and the percentages of CAR+ cells were normalized to the sample with the lowest transduction efficiency (i.e. 20% CAR+) by adding non-transduced T cells. Cells were either left untreated, or treated with 500 ng/ml of AP1903, and in the absence of exogenous cytokines (unless specified in the case of positive controls) or target cells for 2 weeks. […] On Day 5 of the AP1903-driven growth assay, supernatents were sampled for the analysis of cytokine release using the MSD assay (Meso Scale Discovery). At the end of the 2-week culture, the memory and exhaustion phenotypes of surviving CAR T cells were determined. Briefly, duplicate samples from each culture condition cells were harvested and stained using the Zombie NIR Fixable Viability Kit (Biolegend). […]

Data set [7] has as its system CAR T cells. Kind of data set: AP1903-driven growth assay: enrichment, memory and exhaustion phenotype of CAR T cells (Example 16B). To be noted: 2 weeks; exogenous recombinant cytokine 10 ng/mL; 20% CAR+ seeded; FIG. 43. In kind it is cell-based.
Experimental: To test whether different cytotail outputs influenced the memory differentiation and long-term survival of CAR T cells, we performed an AP1903-driven growth assay. CAR T cells bearing the indicated chimeric receptors were thawed and the percentages of CAR+ cells were normalized to the sample with the lowest transduction efficiency (i.e. 20% CAR+) by adding non-transduced T cells. Cells were either left untreated, or treated with 500 ng/ml of AP1903, and in the absence of exogenous cytokines (unless specified in the case of positive controls) or target cells for 2 weeks. As positive controls, CAR T cells were alternatively supplemented with either exogenous recombinant IL-7 or IL-2 (10 ng/mL each; Miltenyi). […] At the end of the 2-week culture, the memory and exhaustion phenotypes of surviving CAR T cells were determined. Briefly, duplicate samples from each culture condition cells were harvested and stained using the Zombie NIR Fixable Viability Kit (Biolegend). […]

The values below come from patent publication US12163169B2, “Inducible chimeric cytokine receptors” (Allogene Therapeutics, Inc., priority 2018, dated 2024).

Entries after “also recorded” stand apart in the source; their conditions may differ. Ends that are not written are not given here.

In the case of “APRIL: soluble APRIL trimers, TNF superfamily ligand”, the “downstream Stat activation” value in data set [1] is recorded as “induced downstream Stat activation”.
With `CC[C@H](C(=O)N1CCCC[C@H]1C(=O)O[C@H](CCc1ccc(OC)c(OC)c1)c1cccc(OCC(=O)NCCNC(=O)COc2cccc([C@@H](CCc3ccc(OC)c(OC)c3)OC(=O)[C@@H]3CCCCN3C(=O)[C@@H](CC)c3cc(OC)c(OC)c(OC)c3)c2)c1)c1cc(OC)c(OC)c(OC)c1` [AP1903], the “AP1903 concentration sufficient to reach the level of expansion achieved by exogenous cytokine supplementation” value in the data set on CAR T cells [2] is not above 1 ng/mL. The “binding affinity to FKBP12 containing the F36V mutation” value in data set [3] is listed as “high affinity; also recorded: much higher affinity than wild-type FKBP12”.
Turning to “IL12Rb2small(775-825): FKBP switch (Example 16) bearing the IL12Rb2small(775-825) cytotail (SDPKPENPACPWTVLPAGDLPTHDGYLPSNIDDLPSHEAPLADSLEELEPQ; also: FKBP switch fusion; UniProt Q99665 775-825, looked up, fragment)”, the Stat4 reporter activation result in the data set on STAT4 is reported as “activating Stat4”. In addition, in the data set with CAR T cells [4] (AP1903, FIG. 41A), the IL-10 secretion entry was “increased IL-10 secretion”. In the data set on CAR T cells [4] (IL-17A/F, IL-21, TNFa and IFNg, FIG. 41A), the “pro-inflammatory cytokine release in the presence of AP1903” value was “released elevated amounts of pro-inflammatory cytokines”. Moreover, in data set [5], the “CAR T cell cytotoxicity in the presence of AP1903” value is reported as “enhances CART cell cytotoxic potency”. For the same molecule, the “cytokine release on Day 5 of AP1903-driven growth” value in the data set with CAR T cells [6] is “secrete elevated amounts of pro-inflammatory cytokines”.

B1: IL-7: exogenous recombinant IL-7 (Miltenyi), positive control (protein, UniProt P13232 26-177, looked up)
Interleukin-7: DCDIEGKDGKQYESVLMVSIDQLLDSMKEIGSNCLNNEFNFFKRHICDANKEGMFLFRAARKLRQFLKMNSTGDFDLHLLKVSEGTTILLNCTGQVKGRKPAALGEAQPTKSLEENKSLKEQKKLNDLCFLKRLLQEIKTCWNKILMGTKEH
Take B1: the “percentage of CAR+ cells” value with CAR T cells [7] is given as approximately 20%.
